The values below come from patent publication US20250092111A1, “POTENT AND STABLE POLYPEPTIDE ANALOGUES VIA SERINE/THREONINE LIGATION” (UNIVERSITY OF WASHINGTON, priority 2022, published 2025).

This test relates to mouse model of glucose disposal. Description: Glucose tolerance test (GTT) in vivo. Particulars: standard glucose tolerance test, data not shown. How it is done: Given the promising activation and stability data, the peptides were tested in vivo using a standard glucose tolerance test (GTT).

SMILES strings stand for the structures.

Turning to `CCCCCCCCCCCCCCCCCCOCCOCCOCCOCCOCCC(=O)N[C@@H](CO)C(=O)NCCCC[C@H](NC(=O)[C@H](CO)NC(=O)[C@@H](NC(=O)[C@H](CC(=O)O)NC(=O)[C@H](CO)NC(=O)[C@@H](NC(=O)[C@H](Cc1ccccc1)NC(=O)[C@@H](NC(=O)CNC(=O)[C@H](CCC(=O)O)NC(=O)[C@H](C)NC(=O)[C@@H](N)Cc1c[nH]cn1)[C@@H](C)O)[C@@H](C)O)C(C)C)C(=O)N[C@@H](Cc1ccc(O)cc1)C(=O)N[C@@H](CC(C)C)C(=O)N[C@@H](CCC(=O)O)C(=O)NCC(=O)N[C@@H](CCC(N)=O)C(=O)N[C@@H](C)C(=O)N[C@@H](C)C(=O)N[C@@H](CCCCN)C(=O)N[C@@H](CCC(=O)O)C(=O)N[C@@H](Cc1ccccc1)C(=O)N[C@H](C(=O)N[C@@H](C)C(=O)N[C@@H](Cc1c[nH]c2ccccc12)C(=O)N[C@@H](CC(C)C)C(=O)N[C@H](C(=O)N[C@@H](CCCCN)C(=O)NCC(=O)N[C@@H](CCCNC(=N)N)C(=O)NCC(=O)O)C(C)C)[C@@H](C)CC` [Peptide G2], the “glucose disposal efficiency compared to unmodified GLP-1” value was “improved glucose disposal efficiency”.
